Assays:
Format in all cases: functional
Rattus norvegicus [1] = assay: Anti-inflammatory activity in sc dosed Sprague-Dawley Rattus norvegicus (rat) assessed as inhibition of carrageenan-induced paw edema administered at 1 hr prior to carrageenan injection measured at 2 hr post-carrageenan challenge by water plethysmometer
Rattus norvegicus [2] = assay: Anti-inflammatory activity in sc dosed Sprague-Dawley Rattus norvegicus (rat) assessed as inhibition of carrageenan-induced paw edema administered at 1 hr prior to carrageenan injection measured at 4 hr post-carrageenan challenge by water plethysmometer
Rattus norvegicus [3] = assay: Anti-inflammatory activity in sc dosed Sprague-Dawley Rattus norvegicus (rat) assessed as inhibition of carrageenan-induced paw edema administered at 1 hr prior to carrageenan injection measured at 1 hr post-carrageenan challenge by water plethysmometer
Rattus norvegicus [4] = assay: Anti-inflammatory activity in sc dosed Sprague-Dawley Rattus norvegicus (rat) assessed as inhibition of carrageenan-induced paw edema administered at 1 hr prior to carrageenan injection measured at 3 hr post-carrageenan challenge by water plethysmometer
Rattus norvegicus [5] = assay: Anti-inflammatory activity in Sprague-Dawley Rattus norvegicus (rat) assessed as inhibition of carrageenan-induced paw edema at 70 mg/kg, sc administered at 1 hr prior to carrageenan injection measured at 4 hr post-carrageenan challenge by water plethysmometer; settings: route subcutaneous
Rattus norvegicus [6] = assay: Anti-inflammatory activity in Sprague-Dawley Rattus norvegicus (rat) assessed as inhibition of carrageenan-induced paw edema at 70 mg/kg, sc administered at 1 hr prior to carrageenan injection measured at 2 hr post-carrageenan challenge by water plethysmometer; settings: route subcutaneous
Rattus norvegicus [7] = assay: Anti-inflammatory activity in Sprague-Dawley Rattus norvegicus (rat) assessed as inhibition of carrageenan-induced paw edema at 70 mg/kg, sc administered at 1 hr prior to carrageenan injection measured at 3 hr post-carrageenan challenge by water plethysmometer; settings: route subcutaneous
Rattus norvegicus [8] = assay: Anti-inflammatory activity in Sprague-Dawley Rattus norvegicus (rat) assessed as inhibition of carrageenan-induced paw edema administered at 70 mg/kg, sc at 1 hr prior to carrageenan injection measured at 1 hr post-carrageenan challenge by water plethysmometer; settings: route subcutaneous

SMILES | inhibition (INH) (Rattus norvegicus [1]) [%] | inhibition (INH) (Rattus norvegicus [2]) [%] | inhibition (INH) (Rattus norvegicus [3]) [%] | inhibition (INH) (Rattus norvegicus [4]) [%] | inhibition in vivo at 70 mg/kg (Rattus norvegicus [5]) [%] | inhibition in vivo at 70 mg/kg (Rattus norvegicus [6]) [%] | inhibition in vivo at 70 mg/kg (Rattus norvegicus [7]) [%] | inhibition in vivo at 70 mg/kg (Rattus norvegicus [8]) [%]
Cc1ccc(-n2c(-c3ccccc3)c(-c3ccccc3)c3c(N/N=C/c4ccccc4)ncnc32)cc1 | 0 | 32.8 | 0 | 15.44 | – | – | – | –
Cc1ccc(-n2c(-c3ccccc3)c(-c3ccccc3)c3c2ncn2nnnc32)cc1 | 11.54 | 31.59 | 5.65 | 26.83 | – | – | – | –
COc1ccc(-n2c(-c3ccccc3)c(-c3ccccc3)c3c2ncn2nnnc32)cc1 | 0 | 39.21 | 0 | 19.7 | – | – | – | –
COc1ccc(-n2c(-c3ccccc3)c(-c3ccccc3)c3c2ncn2c(=O)[nH]nc32)cc1 | 10.38 | 36.5 | 1.45 | 18.5 | – | – | – | –
Cc1ccc(-n2cc(-c3ccccc3)c3c2ncn2c(C)nnc32)cc1 | 18.85 | 32.85 | 11.74 | 29.5 | – | – | – | –
COc1ccc(-n2c(-c3ccccc3)c(-c3ccccc3)c3c2ncn2cnnc32)cc1 | 15.77 | 47.62 | 8.69 | 27.94 | – | – | – | –
Cc1ccc(-n2c(-c3ccccc3)c(-c3ccccc3)c3c(NN)ncnc32)cc1 | 0 | 18.57 | 0 | 29.6 | – | – | – | –
Cc1ccc(-n2c(-c3ccccc3)c(-c3ccccc3)c3c2ncn2c(=S)[nH]nc32)cc1 | 10.38 | 23.81 | 0 | 17.27 | – | – | – | –
Cc1ccc(-n2cc(-c3ccccc3)c3c2ncn2cnnc32)cc1 | 0 | 28.57 | 0 | 10.48 | – | – | – | –
COc1ccc(-n2c(-c3ccccc3)c(-c3ccccc3)c3c(N/N=C/c4ccccc4)ncnc32)cc1 | 32.31 | 62.96 | 17.39 | 54.04 | – | – | – | –
COc1ccc(-n2c(-c3ccccc3)c(-c3ccccc3)c3c2ncn2c(C)nnc32)cc1 | 0 | 28.25 | 0 | 14.15 | – | – | – | –
Cc1ccc(-n2c(-c3ccccc3)c(-c3ccccc3)c3c2ncn2c(C)nnc32)cc1 | 10 | 23.81 | 7.39 | 16.91 | – | – | – | –
Cc1ccc(-n2cc(-c3ccccc3)c3c(-n4nc(C)cc4C)ncnc32)cc1 | 2.56 | 59.25 | 8.7 | 31.37 | – | – | – | –
Cc1ccc(-n2cc(-c3ccccc3)c3c(N/N=C/c4ccccc4)ncnc32)cc1 | 0 | 41.8 | 0 | 27.7 | – | – | – | –
Cc1ccc(-n2cc(-c3ccccc3)c3c(Cl)ncnc32)cc1 | 1.92 | 18.25 | 1.3 | 31.25 | – | – | – | –
COc1ccc(-n2c(-c3ccccc3)c(-c3ccccc3)c3c2ncn2c(=S)[nH]nc32)cc1 | 20.38 | 34.6 | 7.39 | 19.49 | – | – | – | –
Cc1ccc(-n2cc(-c3ccccc3)c3c(NN)ncnc32)cc1 | 0 | 39.21 | 0 | 45.4 | – | – | – | –

SMILES | inhibition (INH) (Rattus norvegicus [1]) [%] | inhibition (INH) (Rattus norvegicus [2]) [%] | inhibition (INH) (Rattus norvegicus [3]) [%] | inhibition (INH) (Rattus norvegicus [4]) [%] | inhibition in vivo at 70 mg/kg (Rattus norvegicus [5]) [%] | inhibition in vivo at 70 mg/kg (Rattus norvegicus [6]) [%] | inhibition in vivo at 70 mg/kg (Rattus norvegicus [7]) [%] | inhibition in vivo at 70 mg/kg (Rattus norvegicus [8]) [%]
COc1ccc(-n2cc(-c3ccccc3)c3c(-n4nc(C)cc4C)ncnc32)cc1 | 23.85 | 61.9 | 7.82 | 35.66 | – | – | – | –
COc1ccc(-n2cc(-c3ccccc3)c3c2ncn2cnnc32)cc1 | 0 | 36.19 | 0 | 33.46 | – | – | – | –
COc1ccc(-n2cc(-c3ccccc3)c3c(NN)ncnc32)cc1 | 8.85 | 50.26 | 23.04 | 41.73 | – | – | – | –
COc1ccc(-n2cc(-c3ccccc3)c3c2ncn2c(=S)[nH]nc32)cc1 | 0 | 47.62 | 0 | 28.31 | – | – | – | –
CC(C)Cc1ccc(C(C)C(=O)O)cc1 (stereo unspecified) [IBUPROFEN] | – | – | – | – | 69.5 | 45 | 60.7 | 6.08
COc1ccc(-n2c3c(c(-c4ccccc4)c2-c2ccccc2)C2=NNC(=O)CN2C=N3)cc1 | 0 | 32.8 | 0 | 15.44 | – | – | – | –
COc1ccc(-n2cc(-c3ccccc3)c3c(Cl)ncnc32)cc1 | 17.3 | 18.89 | 13.4 | 32.9 | – | – | – | –
Cc1ccc(-n2c(-c3ccccc3)c(-c3ccccc3)c3c2ncn2c(=O)[nH]nc32)cc1 | 0 | 42.85 | 0 | 19.7 | – | – | – | –
COc1ccc(-n2c(-c3ccccc3)c(-c3ccccc3)c3c(-n4nc(C)cc4C)ncnc32)cc1 | 6.41 | 74.6 | 0 | 63.24 | – | – | – | –
Cc1ccc(-n2c(-c3ccccc3)c(-c3ccccc3)c3c2ncn2cnnc32)cc1 | 0 | 44.44 | 0 | 15.07 | – | – | – | –
COc1ccc(-n2c(-c3ccccc3)c(-c3ccccc3)c3c(Cl)ncnc32)cc1 | 0 | 45.39 | 0 | 33.64 | – | – | – | –
Cc1ccc(-n2c(-c3ccccc3)c(-c3ccccc3)c3c(Cl)ncnc32)cc1 | 10 | 28.59 | 3.92 | 31.43 | – | – | – | –
COc1ccc(-n2cc(-c3ccccc3)c3c2ncn2c(C)nnc32)cc1 | 0.5416 | 35.98 | 15.94 | 27.8 | – | – | – | –
COc1ccc(-n2c(-c3ccccc3)c(-c3ccccc3)c3c(NN)ncnc32)cc1 | 16.92 | 62.38 | 13.48 | 61.4 | – | – | – | –
Cc1ccc(-n2cc(-c3ccccc3)c3c2ncn2c(=S)[nH]nc32)cc1 | 19.23 | 39.21 | 3.04 | 33.8 | – | – | – | –
COc1ccc(-n2cc(-c3ccccc3)c3c(N/N=C/c4ccccc4)ncnc32)cc1 | 30.77 | 66.19 | 23.04 | 62.68 | – | – | – | –
Cc1ccc(-n2c3c(c(-c4ccccc4)c2-c2ccccc2)C2=NNC(=O)CN2C=N3)cc1 | 23.08 | 34.92 | 17.39 | 28.31 | – | – | – | –

From ChEMBL document CHEMBL3046471, “Evaluation of the anti-inflammatory activity of some pyrrolo[2,3-d]pyrimidine derivatives” (2013)
